Experimental data taken from patent publication US8815879B2, “Substituted 4-(selenophen-2(or-3)-ylamino)pyrimidine compounds and methods of use thereof” (Kasina Laila Innova Pharmaceuticals Private Limited, priority 2010, dated 2014).
Entries after “also recorded” stand apart in the source; their conditions may differ. Counter-ions that a name gives are not always drawn.

Key:
[1] = tested on: human lung carcinoma A549 cells; test: MTT based cell proliferation assay, A549; settings: for inhibition at 10 µg/mL / IC50: Homo sapiens, A549, 72 h; for inhibition at 10 µg/mL: read-out: Cell Proliferation Inhibition in A549 (Lung carcinoma), % at highest screening dose; for IC50: read-out: Cell Proliferation Inhibition in A549 (Lung carcinoma), IC50
[2] = tested on: human colorectal carcinoma HT29 cells; test: MTT based cell proliferation assay, HT29; settings: for inhibition at 10 µg/mL / IC50: Homo sapiens, HT-29, 72 h; for inhibition at 10 µg/mL: read-out: Cell Proliferation Inhibition in HT29 (Colon carcinoma), % at highest screening dose; for IC50: read-out: Cell Proliferation Inhibition in HT29 (Colon carcinoma), IC50
[3] = tested on: human prostate DU145 cells; test: MTT based cell proliferation assay, DU145; settings: for inhibition at 10 µg/mL / IC50: Homo sapiens, DU-145, 72 h; for inhibition at 10 µg/mL: read-out: Cell Proliferation Inhibition in DU145 (Prostate carcinoma), % at highest screening dose; for IC50: read-out: Cell Proliferation Inhibition in DU145 (Prostate carcinoma), IC50
[4] = tested on: HepG2 (Hepatocellular Carcinoma); test: cells; format: cell-based; settings: for IC50: Homo sapiens, HepG2, MTT, read-out: Cell proliferation inhibition (IC50) in HepG2 (Hepatocellular Carcinoma); for potency compared to Iressa, HepG2: ratio of IC50 values
Procedure: (§1) MTT [3-(4,5-dimethylthiazol-2-yl)-2,5-diphenyltetrazolium bromide] incorporation based cell proliferation assay was performed using standard procedure. […] The assay was carried out according to the instructions provided by the vendor. […] Vehicle control culture wells received only a maximum of 0.5% DMSO. Thereafter, 0.5 mg/ml of MTT reagent was added to each well and the microplate was incubated further for 4 h at 37° C. in presence of 5% CO2. Finally, the cells were solubilized by adding solubilizing solution and allowed to incubate at 37° C. overnight. After complete solubilization of the formazan crystals the absorbance was read at 540 nm in a microplate reader (BioRad, USA).
(§2) The evaluation of cell proliferation inhibitory activities of the compounds was done in two phases—(1) Screening, and (2) half-maximal inhibitory concentration (IC50) determination. In the screening phase, the cells were treated with three different concentrations e.g. 1, 5 and 10 μg/ml.

[5] = tested on: human breast carcinoma (estrogen receptor negative) MDA-MB-231 cells; test: cells; format: cell-based; settings: for IC50: Homo sapiens, MDA-MB-231, MTT, read-out: Cell proliferation inhibition (IC50) in MDA-MB-231 (Breast Carcinoma); for potency compared to Iressa, MDA-MB-231: ratio of IC50 values
Procedure: as §1, §2

[6] = tested on: human cervical carcinoma HeLa cells; test: cells; format: cell-based; settings: for IC50: Homo sapiens, HeLa, MTT, read-out: Cell proliferation inhibition (IC50) in HeLa (Cervical Carcinoma); for potency compared to Iressa, HeLa: ratio of IC50 values
Procedure: as §1, §2

[7] = tested on: Human umbilical vein endothelial cells (HUVEC); test: In vitro endothelial capillary formation assay; format: cell-based; settings: HUVEC on Cultrex, 10 ng/ml FGF, Compound 27 at 0.5, 1.0, 2.5 and 5 μg/ml, 16 h
Procedure: Human umbilical vein endothelial cells (HUVECs) were laid on Cultrex coated plates in presence of either 10 ng/ml human recombinant Fibroblast Growth Factor (FGF) alone (B) or concomitantly with Compound 27 at 0.5, 1.0, 2.5 and 5 μg/ml C, D, E, and F, respectively. The cells in presence of treatments were allowed to form endothelial capillary tubes for 16 h at 37° C. Panel A represents capillary-like endothelial tube formation in 0.1% DMSO treated vehicle control wells.
In vitro capillary formation assay was performed with Human umbilical vein endothelial cells (HUVEC), cultured on 10 mg/ml basement membrane extract (BME—Cultrex®, R&D Systems, USA) bed. Four hundred microliters of Cultrex was coated at 4° C. in each well of 24-well culture plate and allowed to gel at 37° C. for 1 h. HUVECs were plated at a density of 1×10^5 cells per well with 400 μl of EGM-2 medium (Lonza Walkersville Inc. Walkersville, Md.). The cells were then treated with either 10 ng/ml of Human recombinant Fibroblast Growth Factor (FGF, R&D Systems, Minneapolis, Minn.)) alone or concurrently with different concentrations of Compound 27 for 16 hours. Vehicle control cultures received only 0.1% DMSO. Pictures were taken under a Nikon Eclipse TS 100 microscope equipped with a Nikon Coolpix camera. […] In contrast, FGF promoted human endothelial capillary formation in vitro (FIG. 1).

Compound | melting point | inhibition at 10 µg/mL [1] | inhibition at 10 µg/mL [2] | inhibition at 10 µg/mL [3] | also measured
CSc1cc2ncnc(Nc3cc(C(C)(C)C)[se]c3C(N)=O)c2s1 [Compound 14, 3-(6-(methylthio)thiopheno[3,2-d]pyrimidin-4-ylamino)-5-tert-butyl-selenophene-2-carboxamide] | 260 to 262 °C | 3.54% | 53.5% | 7.81% | –
COc1cc2ncnc(N(C)c3cc(C(C)(C)C)[se]c3C(N)=O)c2cc1OC [Compound 21, 3-(N-(6,7-dimethoxyquinazolin-4-yl)-N-methylamino)-5-tert-butylseleno-phene-2-carboxamide] | 256 to 258 °C | – | – | – | IC50 [4]: 2.33 µM; potency compared to Iressa, HepG2 [4]: fifteen; IC50 [5]: 2.86 µM; potency compared to Iressa, MDA-MB-231 [5]: sixteen; IC50 [6]: 2.97 µM; potency compared to Iressa, HeLa [6]: seventeen times; IC50 [1]: 3.59 µM; IC50 [2]: 3.88 µM; IC50 [3]: 3.95 µM
CC(C)(C)c1cc(Nc2ncnc3oc(-c4ccccc4)cc23)c(C(N)=O)[se]1 [Compound 15, 3-(6-phenylfuro[2,3-d]pyrimidin-4-ylamino)-5-tert-butylselenophene-2-carboxamide] | 280 to 282 °C | 5.87% | 25.4% | 3.44% | –
CC(C)(C)c1cc(Nc2ncnc3ncccc23)c(C(N)=O)[se]1 (as salt: HCl) [Compound 12, 5-tert-butyl-3-(pyridino[2,3-d]pyrimidin-4-ylamino)selenophene-2-carboxamide] | 242 to 244 °C | – | – | – | –
COc1cc2ncnc(Oc3cc(C(C)(C)C)[se]c3C(N)=O)c2cc1OC [Compound 29, 3-(6,7-dimethoxyquinazolin-4-yloxy)-5-tert-butylselenophene-2-carboxamide] | 220 to 224 °C | 15.6% | 44.6% | 43% | –
COC(=O)c1cc(Nc2ncnc3cc(OC)c(OCCCN4CCOCC4)cc23)c(C)[se]1 (as salt: HCl) [Compound 10, methyl 4-(6-(3-morpholinopropoxy)-7-methoxyquinazolin-4-ylamino)-5-methylselenophene-2-carboxylate] | 198 to 200 °C | – | – | – | –
COc1cc2nc(CN(C)C)nc(Nc3cc(C(C)(C)C)[se]c3C(N)=O)c2cc1OC (as salt: HCl) [Compound 27] | 226 to 228 °C | – | – | – | –
CC(C)(C)c1cc(Nc2ncnc3cc(C(C)(C)C)[se]c23)c(C(N)=O)[se]1 (as salt: HCl) [Compound 18, 3-(6-tert-butylselenopheno[3,2-d]pyrimidin-4-ylamino)-5-tert-butylselenophene-2-carboxamide] | 212 to 214 °C | – | – | – | –
COC(=O)c1cc(Nc2nc(C)nc3cc(OC)c(OC)cc23)c(C)[se]1 (as salt: HCl) [Compound 25, methyl 4-(6,7-dimethoxy-2-methylquinazolin-4-ylamino)-5-methylselenophene-2-carboxylate] | 276 to 280 °C | – | – | – | –
COC(=O)c1cc(Nc2ncnc3[nH]c(C)c(C)c23)c(C)[se]1 [Compound 17, methyl 4-(5,6-dimethyl-7H-pyrrolo[2,3-d]pyrimidin-4-ylamino)-5-methylselenophene-2-carboxylate] | 238 to 240 °C | 2.66% | 4.54% | 7.62% | –
COc1cc2nc(-c3ccc(Cl)cc3)nc(Nc3cc(C(C)(C)C)[se]c3C(N)=O)c2cc1OC [Compound 28, 3-(2-(4-chlorophenyl)-6,7-dimethoxyquinazolin-4-ylamino)-5-tert-butylselenophene-2-carboxamide] | 268 to 270 °C | 9% | 2.69% | 10.4% | –
COc1cc2ncnc(Nc3cc(C(C)(C)C)[se]c3C(N)=O)c2cc1OC [Compound 1, 3-(6,7-dimethoxyquinazolin-4-ylamino)-5-tert-butylselenophene-2-carboxamide] | 234 to 238 °C | – | – | – | IC50 [1]: 9.08 µM; potency in vitro compared to gefitinib (Iressa), A549 ([1]; ratio of IC50 values): approximately two times; IC50 [2]: 5.12 µM; potency in vitro compared to gefitinib (Iressa), HT29 ([2]; ratio of IC50 values): several times better potency; IC50 [3]: 3.6 µM; potency in vitro compared to gefitinib (Iressa), DU145 ([3]; ratio of IC50 values): several times better potency
CC(C)(C)c1cc(Nc2ncnc3ccc(N)cc23)c(C(N)=O)[se]1 (as salt: HCl) [Compound 8, 3-(6-aminoquinazolin-4-ylamino)-5-tert-butylselenophene-2-carboxamide] | 170 to 172 °C | – | – | – | –
CC(C)(C)c1cc(Nc2ncnc3ccc(NC(=O)CCl)cc23)c(C(N)=O)[se]1 (as salt: HCl) [Compound 9, 3-(6-(2-chloroacetamido)quinazolin-4-ylamino)-5-tert-butylselenophene-2-carboxamide] | 276 to 278 °C | – | – | – | –
COc1cc2ncnc(Nc3cc(-c4ccccc4)[se]c3C(N)=O)c2cc1OCCCN1CCOCC1 (as salt: HCl) [Compound 7, 3-(6-(3-morpholinopropoxy)-7-methoxyquinazolin-4-ylamino)-5-phenyl-selenophene-2-carboxamide] | 266 to 270 °C | – | – | – | –
CC(C)(C)c1cc2c(Nc3cc(C(C)(C)C)[se]c3C(N)=O)ncnc2o1 [Compound 16, 3-(6-tert-butylfuro[2,3-d]pyrimidin-4-ylamino)-5-tert-butylselenophene-2-carboxamide] | 288 to 290 °C | 1.6% | 20.3% | 2.81% | –
COc1cc2ncnc(Nc3cc(C(C)(C)C)[se]c3C(N)=O)c2cc1OCCCN1CCOCC1 (as salt: HCl) [Compound 3, 3-(6-(3-morpholinopropoxy)-7-methoxyquinazolin-4-ylamino)-5-tert-butylselenophene-2-carboxamide] | 262 to 264 °C | – | – | – | –
COc1cc2nc(CN(C)C)nc(Nc3cc(C(C)(C)C)[se]c3C(N)=O)c2cc1OC [Compound 27] | – | – | – | – | IC50 [4]: 2.34 µM; potency compared to Iressa, HepG2 [4]: equally more potent than Iressa; IC50 [5]: 3.09 µM; potency compared to Iressa, MDA-MB-231 [5]: equally more potent than Iressa; IC50 [6]: 2.88 µM; potency compared to Iressa, HeLa [6]: equally more potent than Iressa; inhibition of FGF induced capillary-like endothelial tube formation [7]: inhibits capillary-like endothelial tube formation in vitro; also recorded: inhibited FGF induced capillary formation in a dose dependent manner; inhibition of FGF induced capillary-like endothelial tube formation ([7]; listed as compound 27): significantly inhibiting endothelial capillary formation in a dose dependent manner; IC50 [1]: 3.58 µM; IC50 [2]: 2.86 µM; IC50 [3]: 2.97 µM
COc1cc2ncnc(N(C)c3cc(C(C)(C)C)[se]c3C(N)=O)c2cc1OCCCN1CCOCC1 (as salt: HCl) [Compound 22, 3-(N-(6-(3-morpholinopropoxy)-7-methoxyquinazolin-4-yl)-N-methylamino)-5-tert-butylselenophene-2-carboxamide] | 254 to 256 °C | – | – | – | –
